For three compounds, IC50, Activity and Ki results are on record in ChEMBL document CHEMBL1221208, “ATP-competitive inhibitors of the mitotic kinesin KSP that function via an allosteric mechanism” (Nat Chem Biol, 2007).

Experiment [1] concerns HCT-116. In words: Antiproliferative activity against human HCT116 cells after 72 hrs by Cell titer Glo assay. It is filed as functional, cell-based. The settings on record: HCT-116, 72 h.
Experiment [2] relates to HCT-116. As to the kind of experiment: Antiproliferative activity against 3x IC95 biaryl selected human HCT116 cells expressing Kinesin-like protein KIF11 D130V mutant after 72 hrs by Cell titer Glo assay. It is filed as functional, cell-based. The settings on record: HCT-116, 72 h.
The subject of experiment [3] is HCT-116. In words: Antiproliferative activity against 3x IC95 biaryl selected drug-resistant against human HCT116 cells after 72 hrs by Cell titer Glo assay. The experiment is classed as functional, cell-based. The settings on record: HCT-116, 72 h.
Experiment [4] deals with HCT-116. In words: Antiproliferative activity against IC50 biaryl selected human HCT116 cells expressing Kinesin-like protein KIF11 D130V mutant after 72 hrs by Cell titer Glo assay. It is filed as functional, cell-based. The settings on record: HCT-116, 72 h.
The subject of experiment [5] is HCT-116. In words: Antiproliferative activity against IC95 biaryl selected drug-resistant against human HCT116 cells after 72 hrs by Cell titer Glo assay. The experiment is classed as functional, cell-based. The settings on record: HCT-116, 72 h.
For experiment [6], the system named is HCT-116. In words: Antiproliferative activity against human HCT116 cells expressing Kinesin-like protein KIF11 D130V mutant after 72 hrs by Cell titer Glo assay. The settings on record: HCT-116, 72 h. The experiment is classed as functional, cell-based.
For experiment [7], the system named is HCT-116. In words: Antiproliferative activity against IC95 biaryl selected human HCT116 cells expressing Kinesin-like protein KIF11 D130V mutant after 72 hrs by Cell titer Glo assay. It is filed as functional, cell-based. The settings on record: HCT-116, 72 h.
Experiment [8] deals with HCT-116. In words: Antiproliferative activity against IC50 biaryl selected drug-resistant against human HCT116 cells after 72 hrs by Cell titer Glo assay. It is filed as functional, cell-based. The settings on record: HCT-116, 72 h.
The target of experiment [9] is T1, Kinesin-like protein KIF11 (Homo sapiens) (UniProt P52732).
T1 sequence (whole entry): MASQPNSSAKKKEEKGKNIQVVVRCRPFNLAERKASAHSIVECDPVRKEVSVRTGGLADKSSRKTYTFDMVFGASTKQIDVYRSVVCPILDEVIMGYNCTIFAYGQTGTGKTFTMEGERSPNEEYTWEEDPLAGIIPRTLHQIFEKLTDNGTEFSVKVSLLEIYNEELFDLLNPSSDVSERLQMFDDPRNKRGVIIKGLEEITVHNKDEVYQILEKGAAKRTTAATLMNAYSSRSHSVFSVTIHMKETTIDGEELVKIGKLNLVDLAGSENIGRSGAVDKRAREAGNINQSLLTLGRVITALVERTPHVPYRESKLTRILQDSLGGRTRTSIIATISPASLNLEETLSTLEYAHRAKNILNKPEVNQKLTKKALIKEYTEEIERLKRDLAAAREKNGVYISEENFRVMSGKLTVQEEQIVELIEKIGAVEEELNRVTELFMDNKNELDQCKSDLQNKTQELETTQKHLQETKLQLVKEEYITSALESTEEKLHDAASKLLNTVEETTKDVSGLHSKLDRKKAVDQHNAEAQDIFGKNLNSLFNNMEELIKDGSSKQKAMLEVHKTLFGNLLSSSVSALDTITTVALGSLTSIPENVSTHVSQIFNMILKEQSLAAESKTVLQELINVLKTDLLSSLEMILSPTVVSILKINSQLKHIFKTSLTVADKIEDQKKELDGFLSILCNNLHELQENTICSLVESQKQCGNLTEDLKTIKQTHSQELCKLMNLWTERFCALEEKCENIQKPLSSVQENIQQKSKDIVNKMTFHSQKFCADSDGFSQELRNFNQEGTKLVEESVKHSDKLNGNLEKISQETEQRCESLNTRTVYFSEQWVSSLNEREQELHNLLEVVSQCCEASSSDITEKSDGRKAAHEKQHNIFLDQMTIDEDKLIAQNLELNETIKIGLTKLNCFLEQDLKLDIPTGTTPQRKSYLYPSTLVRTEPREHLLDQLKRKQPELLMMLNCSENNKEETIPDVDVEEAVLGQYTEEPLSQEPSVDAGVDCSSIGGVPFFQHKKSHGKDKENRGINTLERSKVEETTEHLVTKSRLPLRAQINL
As to the kind of experiment: Binding affinity to human KSP assessed as photoaffinity labeling at Leu295 residue at 240 uM by photo affinity labeling study.

Experiment [10] concerns the target T2, Kinesin-like protein KIF11 (Homo sapiens, UniProt P52732).
T2 sequence (P52732 whole entry): T1 sequence (whole entry)
As to the kind of experiment: Inhibition of human wild type Eg5 using varying ATP levels in presence of saturating levels of microtubule by Lineweaver-Burke plot.

Each structure is given as a SMILES string. Calls of active or inactive are those of the source. The calls are words filed in the database; no cut-off is given here.

Consider `CC(=O)O[C@@]12CO[C@@H]1C[C@H](O)[C@@]1(C)C(=O)[C@H](O)C3=C(C)[C@@H](OC(=O)[C@H](O)[C@@H](NC(=O)OC(C)(C)C)c4ccccc4)C[C@@](O)([C@@H](OC(=O)c4ccccc4)[C@H]21)C3(C)C` [DOCETAXEL], for which the IC50 in the experiment on HCT-116 [1] amounted to 0.3 nM; with HCT-116 [2], 0.35 nM; with HCT-116 [3] it was 8.7 nM; in the experiment on HCT-116 [4], 0.2 nM; in the experiment on HCT-116 [5] it was 0.18 nM; in the experiment on HCT-116 [6], 0.23 nM. The half-maximal inhibitory concentration (IC50) was determined as 0.59 nM with HCT-116 [7] and 0.31 nM with HCT-116 [8].

As for `Cc1ccc(C(=O)N(CCCN)[C@@H](c2nc3cc(Cl)ccc3c(=O)n2Cc2ccccc2)C(C)C)cc1F`, the half-inhibitory concentration (IC50) is 0.46 nM in the experiment with HCT-116 [1]; 87.3 nM in the experiment with HCT-116 [2]; 22 nM in the experiment on HCT-116 [3]; 1190 nM with HCT-116 [4]; 1 nM with HCT-116 [5]; 903 nM in the experiment with HCT-116 [6]. In addition, the IC50 was 675 nM in the experiment with HCT-116 [7] and 0.72 nM in the experiment on HCT-116 [8].

As for `NC(=O)Nc1ccc(-c2ccc(C3(C(F)(F)F)N=N3)cc2)cc1`, the outcome in experiment [9] was Active. Besides, the inhibitory constant (Ki) in experiment [10] was determined as 330 nM.
